Target: T1, SUMO (Homo sapiens, UniProt Q9UBT2)
T1 sequence (Q9UBT2 1-640): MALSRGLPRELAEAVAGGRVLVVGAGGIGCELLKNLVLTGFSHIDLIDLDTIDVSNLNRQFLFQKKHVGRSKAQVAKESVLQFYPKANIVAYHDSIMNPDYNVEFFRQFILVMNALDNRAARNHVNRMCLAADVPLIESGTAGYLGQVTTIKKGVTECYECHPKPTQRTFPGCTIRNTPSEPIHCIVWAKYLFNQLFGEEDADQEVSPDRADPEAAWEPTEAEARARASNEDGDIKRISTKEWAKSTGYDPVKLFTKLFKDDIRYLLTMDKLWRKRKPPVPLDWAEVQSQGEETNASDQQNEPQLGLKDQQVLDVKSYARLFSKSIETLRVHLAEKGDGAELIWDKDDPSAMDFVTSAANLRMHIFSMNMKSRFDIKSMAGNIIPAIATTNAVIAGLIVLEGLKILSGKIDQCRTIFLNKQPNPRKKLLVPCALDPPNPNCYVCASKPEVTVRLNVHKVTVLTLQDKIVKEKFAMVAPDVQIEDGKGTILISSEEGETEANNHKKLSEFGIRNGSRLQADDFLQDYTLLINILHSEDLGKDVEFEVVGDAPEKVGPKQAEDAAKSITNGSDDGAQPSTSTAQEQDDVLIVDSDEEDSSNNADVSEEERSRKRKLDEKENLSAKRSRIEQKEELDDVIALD
T1 sequence (Q9UBE0 1-346 partner): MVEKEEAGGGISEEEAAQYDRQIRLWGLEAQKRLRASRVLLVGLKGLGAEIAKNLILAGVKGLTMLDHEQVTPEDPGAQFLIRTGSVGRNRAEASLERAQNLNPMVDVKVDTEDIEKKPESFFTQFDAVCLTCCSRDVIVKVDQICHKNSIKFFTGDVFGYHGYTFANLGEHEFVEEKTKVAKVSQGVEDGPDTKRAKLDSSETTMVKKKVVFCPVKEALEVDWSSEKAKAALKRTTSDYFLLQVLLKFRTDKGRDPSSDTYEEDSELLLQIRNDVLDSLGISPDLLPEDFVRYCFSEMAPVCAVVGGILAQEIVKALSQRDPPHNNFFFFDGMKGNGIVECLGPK
Experiment: SUMO activity (Table I, biological activities)
Assay type: biochemical
Set-up: key: + (less active); ++ (active); +++ (most active)

SUMO | SMILES
+ | Cc1ccc(S(=O)(=O)C2=CC3(C(Cc4ccccc4)Nc4ccccc4)C=CC2(C)O3)cc1 (centres unmarked) [Compound 532]
+++ | COC(=O)C1=C(C(=O)OC)C2(C(Cc3ccc(C)cc3)Nc3ccccc3)C=CC1O2 (centres unmarked) [Compound 627]
++ | CCC12C=CC(C(Cc3ccccc3)Nc3ccccc3)(O1)C(C(=O)OC)=C2C(=O)OC (centres unmarked) [Compound 629]
+++ | COC(=O)C1=C(C(=O)OC)C2(C(Cc3ccc4ccccc4c3)Nc3ccccc3)C=CC1O2 (centres unmarked) [Compound 630]
+++ | COC(=O)C1=C(C(=O)OC)C2(C(Cc3ccc(OC)cc3)Nc3ccccc3)C=CC1O2 (centres unmarked) [Compound 633]
++ | COC(=O)C1=C(C(=O)OC)C2(C(Cc3cccc4ccccc34)Nc3ccccc3)C=CC1O2 (centres unmarked) [Compound 635]
+++ | COC(=O)C1=C(C(=O)OC)C2(C(Nc3ccccc3)c3cccc4ccccc34)C=CC1O2 (centres unmarked) [Compound 637]
+++ | COC(=O)C1=C(C(=O)OC)C2(C(Cc3ccccc3Cl)Nc3ccccc3)C=CC1O2 (centres unmarked) [Compound 640]
++ | COC(=O)C1=C(C(=O)OC)C2(C(Cc3ccc(C#N)cc3)Nc3ccccc3)C=CC1O2 (centres unmarked) [Compound 643]
++ | COC(=O)C1=C(C(=O)OC)C2(C(Cc3ccccc3C)Nc3ccccc3)C=CC1O2 (centres unmarked) [Compound 648]
++ | COC(=O)C1=C(C(=O)OC)C2(C(Cc3ccc(Br)cc3)Nc3ccccc3)C=CC1O2 (centres unmarked) [Compound 652]
++ | CCc1ccc(CC(Nc2ccccc2)C23C=CC(O2)C(C(=O)OC)=C3C(=O)OC)cc1 (centres unmarked) [Compound 655]
+ | CCNC(=O)C1=C(C(=O)NCC)C2(C(Cc3ccccc3Cl)Nc3ccccc3)C=CC1O2 (centres unmarked) [Compound 662]
++ | COC(=O)C1=C(C(=O)OC)C2(C(Cc3cccc(Cl)c3)Nc3ccccc3)C=CC1O2 (centres unmarked) [Compound 663]
++ | COC(=O)C1=C(C(=O)OC)C2(C(Cc3ccccc3Br)Nc3ccccc3)C=CC1O2 (centres unmarked) [Compound 667]
++ | COC(=O)C1=C(C(=O)OC)C2(C(Cc3ccc(C(C)C)cc3)Nc3ccccc3)C=CC1O2 (centres unmarked) [Compound 670]
++ | COC(=O)C1=C(C(=O)OC)C2(C(Cc3ccccc3Cl)Nc3cccc(Oc4ccccc4)c3)C=CC1O2 (centres unmarked) [Compound 672]
++ | COC(=O)C1=C(C(=O)OC)C2(C(Cc3ccccc3Cl)Nc3cccc(OCc4ccccc4)c3)C=CC1O2 (centres unmarked) [Compound 674]
++ | COC(=O)C1=C(C(=O)OC)C2(C(Cc3ccc(-c4ccccc4)cc3)Nc3ccccc3)C=CC1O2 (centres unmarked) [Compound 677]
+ | COC(=O)C1=C(C(=O)OC)C2(C(Cc3ccccc3Cl)Nc3ccc(Oc4ccccc4)cc3)C=CC1O2 (centres unmarked) [Compound 678]
+ | COC(=O)C1=C(C(=O)OC)C2(C(Cc3cccc(-c4ccccc4)c3)Nc3ccccc3)C=CC1O2 (centres unmarked) [Compound 682]
+ | COC(=O)C1=C(C(=O)OC)C2(C(Cc3ccc(Nc4ccccc4)cc3)Nc3ccccc3)C=CC1O2 (centres unmarked) [Compound 683]

More lines, now with the values behind:

SMILES | SUMO
COC(=O)C1=C(C(=O)Nc2ccc(C)c(F)c2)C2C=CC1(C1OCCO1)O2 (centres unmarked) [Compound 485] | +
COC(=O)C1=C(C(=O)OC)C2(C(Oc3ccccc3)c3ccc(CN4CCOCC4)cc3)C=CC1O2 (centres unmarked) [Compound 495] | ++
COC(=O)C1=C(C(=O)OC)C2(C(Cc3ccccc3)Oc3cccc(CO)c3)C=CC1O2 (centres unmarked) [Compound 520] | ++
COC(=O)C1=C(C(=O)NCCNC(=O)OC(C)(C)C)C2C=CC1(C(Cc1ccccc1)Nc1ccc(F)cc1)O2 (centres unmarked) [Compound 539] | ++
CCOC(=O)C1=C(C(=O)Nc2cccc(F)c2C)C2C=CC1(C(Nc1ccccc1)c1ccc(CN3CCOCC3)cc1)O2 (centres unmarked) [Compound 603] | ++
COC(=O)C1=C(C(=O)OC)C2(C(Nc3ccccc3)c3ccc4ccccc4c3)C=CC1O2 (centres unmarked) [Compound 632] | +++
COC(=O)C1=C(C(=O)OC)C2(C(Cc3cccc(OC)c3)Nc3ccccc3)C=CC1O2 (centres unmarked) [Compound 636] | +++
COC(=O)C1=C(C(=O)OC)C2(C(Cc3ccc(F)cc3F)Nc3ccccc3)C=CC1O2 (centres unmarked) [Compound 639] | ++
COC(=O)C1=C(C(=O)OC)C2(C(Cc3ccc(Cl)cc3Cl)Nc3ccccc3)C=CC1O2 (centres unmarked) [Compound 641] | +++
COC(=O)C1=C(C(=O)OC)C2(C(Cc3ccc(Cl)c(Cl)c3)Nc3ccccc3)C=CC1O2 (centres unmarked) [Compound 642] | +++
CCOc1ccc(CC(Nc2ccccc2)C23C=CC(O2)C(C(=O)OC)=C3C(=O)OC)cc1 (centres unmarked) [Compound 644] | ++
COC(=O)C1=C(C(=O)OC)C2(C(Cc3ccc(OC(F)(F)F)cc3)Nc3ccccc3)C=CC1O2 (centres unmarked) [Compound 647] | ++
COC(=O)C1=C(C(=O)OC)C2(C(Cc3ccc(Cl)nc3)Nc3ccccc3)C=CC1O2 (centres unmarked) [Compound 649] | ++
COC(=O)C1=C(C(=O)OC)C2(C(Cc3ccc(OC(C)C)cc3)Nc3ccccc3)C=CC1O2 (centres unmarked) [Compound 650] | ++
COC(=O)C1=C(C(=O)OC)C2(C(Cc3ccc(OCC(C)C)cc3)Nc3ccccc3)C=CC1O2 (centres unmarked) [Compound 651] | ++
COC(=O)C1=C(C(=O)OC)C2(C(Nc3ccccc3)c3ccc4cc(OC)ccc4c3)C=CC1O2 (centres unmarked) [Compound 653] | ++

SMILES | SUMO
COC(=O)C1=C(C(=O)OC)C2(C(Nc3ccccc3)c3ccc4ccc(OC)cc4c3)C=CC1O2 (centres unmarked) [Compound 654] | ++
COC(=O)C1=C(C(=O)OC)C2(C(Cc3ccc(CC(C)C)cc3)Nc3ccccc3)C=CC1O2 (centres unmarked) [Compound 656] | ++
COC(=O)C1=C(C(=O)OC)C2(C(Cc3c(Cl)cccc3Cl)Nc3ccccc3)C=CC1O2 (centres unmarked) [Compound 657] | ++
COC(=O)C1=C(C(=O)OC)C2(C(Cc3ccccc3C(F)(F)F)Nc3ccccc3)C=CC1O2 (centres unmarked) [Compound 658] | ++
CCOC(=O)C1=C(C(=O)OCC)C2(C(Nc3ccccc3)c3ccc(CN4CCOCC4)cc3)C=CC1O2 (centres unmarked) [Compound 659] | ++
COC(=O)C1=C(C(=O)OC)C2(C(Cc3ccccc3C#N)Nc3ccccc3)C=CC1O2 (centres unmarked) [Compound 660] | ++
COC(=O)C1=C(C(=O)OC)C2(C(Cc3ccc(CCO)cc3)Nc3ccccc3)C=CC1O2 (centres unmarked) [Compound 664] | ++
CNC(=O)Cc1ccc(CC(Nc2ccccc2)C23C=CC(O2)C(C(=O)OC)=C3C(=O)OC)cc1 (centres unmarked) [Compound 665] | ++
COC(=O)C1=C(C(=O)OC)C2(C(Cc3cccnc3Cl)Nc3ccccc3)C=CC1O2 (centres unmarked) [Compound 668] | ++
CCOc1cccc(NC(Cc2ccccc2)C23C=CC(O2)C(C(=O)OC)=C3C(=O)OC)c1 (centres unmarked) [Compound 669] | ++
COC(=O)C1=C(C(=O)OC)C2(C(Nc3ccccc3)c3cc4ccccc4nc3Cl)C=CC1O2 (centres unmarked) [Compound 671] | ++
COC(=O)C1=C(C(=O)OC)C2(C(Cc3ccccc3Cl)Nc3ccc(F)cc3)C=CC1O2 (centres unmarked) [Compound 673] | ++
COC(=O)C1=C(C(=O)OC)C2(C(Nc3ccccc3)c3ccc4nc(Cl)ccc4c3)C=CC1O2 (centres unmarked) [Compound 675] | ++
COC(=O)C1=C(C(=O)OC)C2(C(Cc3ccc(CC4CCOCC4)cc3)Nc3ccccc3)C=CC1O2 (centres unmarked) [Compound 676] | ++
COC(=O)C1=C(C(=O)OC)C2(C(Cc3ccc(C4CCOCC4)cc3)Nc3ccccc3)C=CC1O2 (centres unmarked) [Compound 681] | ++
